Our source for the IC50, Activity and inhibition values is ChEMBL document CHEMBL4351024, “Steroidal N-Sulfonylimidates: Synthesis and biological evaluation in breast cancer cells” (Eur J Med Chem, 2019).

Active and inactive are the calls of the source. The rule behind the calls is not given here.

Data set [1] has as its system MCF7. The data set is described as follows: Antiproliferative activity against human MCF7 cells assessed as reduction in cell viability after 72 hrs by MTT assay. In kind it is functional, cell-based. On the technique in general: Tetrazolium assays rely on reduction of a dye to a coloured formazan, in cell work by metabolically active cells.
Data set [2] deals with MCF-10A. Briefly: Cytotoxicity against human MCF10A assessed as reduction in cell viability up to 12 uM after 72 hrs by MTT assay. Format: cell-based.
Data set [3] relates to MDA-MB-231. Briefly: Effect on EGFR expression in human MDA-MB-231 cells up to 50 uM measured after 48 hrs by Westernblot analysis. In kind it is functional, cell-based.
The nature of data set [4]: Effect on RAS/RAF/MEK/ERK pathway in human MDA-MB-231 cells assessed as increase in ERK1/2 phosphorylation up to 50 uM measured after 48 hrs by Western blot analysis. Format: cell-based.
The test system of data set [5] is MCF-10A. The data set is described as follows: Cytotoxicity against human MCF10A assessed as reduction in cell viability at 25 uM after 72 hrs by MTT assay. Format: cell-based.
For data set [6], the system named is MDA-MB-231. The data set is described as follows: Antiproliferative activity against human MDA-MB-231 cells assessed as reduction in cell viability after 72 hrs by MTT assay. In kind it is functional, cell-based. Conditions: MDA-MB-231, 72 h.
Data set [7] has as its system MDA-MB-231. Briefly: Down regulation of slug levels in human MDA-MB-231 cells up to 50 uM measured after 48 hrs by Westernblot analysis. In kind it is functional, cell-based.
Data set [8] concerns the target Serine/threonine-protein kinase mTOR (Homo sapiens) (UniProt P42345). The data set is described as follows: Inhibition of mTOR phosphorylation in human MDA-MB-231 cells up to 50 uM measured after 48 hrs by Western blot analysis. In kind it is cell-based. (In general: A western blot detects proteins with antibodies after separation by electrophoresis.)
Data set [9] concerns MDA-MB-231. Briefly: Downregulation of cyclin-D1 expression in human MDA-MB-231 cells up to 50 uM measured after 48 hrs by Westernblot analysis. In kind it is functional, cell-based.
Data set [10] has as its target Transcription factor p65 (Homo sapiens) (UniProt Q04206). Briefly: Down regulation of NFkappaB p65 phosphorylation in human MDA-MB-231 cells up to 50 uM measured after 48 hrs by Western blot analysis. In kind it is cell-based.
The mark [11] stands for this setting: Homo sapiens, MCF7, 72 h, read-out: IC50.

For orientation: IC50 means the concentration that inhibits the measured activity by half.

Transcription factor p65 (Homo sapiens), sequence (Q04206 whole entry): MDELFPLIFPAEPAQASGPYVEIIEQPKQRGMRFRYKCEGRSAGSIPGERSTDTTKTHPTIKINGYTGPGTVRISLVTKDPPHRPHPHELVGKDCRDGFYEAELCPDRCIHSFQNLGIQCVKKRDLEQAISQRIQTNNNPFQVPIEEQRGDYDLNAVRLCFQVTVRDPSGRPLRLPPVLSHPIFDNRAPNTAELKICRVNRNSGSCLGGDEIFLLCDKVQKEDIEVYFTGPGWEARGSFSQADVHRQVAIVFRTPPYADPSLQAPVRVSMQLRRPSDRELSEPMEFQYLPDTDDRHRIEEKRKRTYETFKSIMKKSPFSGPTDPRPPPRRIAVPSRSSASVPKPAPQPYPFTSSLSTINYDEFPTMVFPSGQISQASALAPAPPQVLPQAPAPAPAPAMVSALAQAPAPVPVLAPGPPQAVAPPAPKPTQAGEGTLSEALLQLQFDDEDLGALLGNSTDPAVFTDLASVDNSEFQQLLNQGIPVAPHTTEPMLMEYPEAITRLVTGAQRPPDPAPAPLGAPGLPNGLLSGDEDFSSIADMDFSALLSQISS

Consider `CCO/C(C[C@]1(O)CC[C@H]2[C@@H]3CCc4cc(OC)ccc4[C@H]3CC[C@@]21C)=N/S(=O)(=O)c1ccc(C)cc1`, for which the IC50 in data set [1] (setting [11]) is 11.8 µM.
As to `Cc1ccc(S(=O)(=O)NC(=O)C[C@]2(O)CC[C@H]3[C@@H]4CCc5cc(O)ccc5[C@H]4CC[C@@]32C)cc1`, the IC50 result in [1] (mcf7) is recorded as “Not Active”.
Take `CCCO/C(C[C@]1(O)CC[C@H]2[C@@H]3CCc4cc(OC)ccc4[C@H]3CC[C@@]21C)=N/S(=O)(=O)c1ccc(C)cc1`: in [1] (setting [11]), the 50% inhibitory concentration (IC50) turned out to be 15.5 µM.
For the compound `CCO/C(CC1=CC[C@H]2[C@@H]3CCc4cc(OC)ccc4[C@H]3CC[C@]12C)=N/S(=O)(=O)c1ccc(C)cc1`, the half-inhibitory concentration (IC50) in [1] (setting [11]) was found to be 9.5 µM.
`CCCO/C(C[C@]1(O)CC[C@H]2[C@@H]3CCc4cc(OC(C)=O)ccc4[C@H]3CC[C@@]21C)=N/S(=O)(=O)c1ccc(C)cc1`: the half-maximal inhibitory concentration (IC50) in data set [1] (setting [11]) was 17.9 µM.
In the case of `COc1ccc2c(c1)CC[C@@H]1[C@@H]2CC[C@@]2(C)[C@H]1CC[C@]2(C/C(=N\S(=O)(=O)c1ccc(C)cc1)OC(C)C)OC`, the Activity entry is “Non-Toxic” in data set [2] and “Toxic” in data set [5]. The outcome in [3] was inactive. The result in data set [4], in data set [7], in [9] and in data set [10] was Active. In addition, the values for the IC50 in data set [6] and in data set [1] (setting [11]) were 11.3 µM and 4.3 µM, respectively. Also, in data set [8], the inhibition entry is “inactive”.
Regarding `CCCCCCCO/C(C[C@]1(OC)CC[C@H]2[C@@H]3CCc4cc(OC)ccc4[C@H]3CC[C@@]21C)=N/S(=O)(=O)c1ccc(C)cc1`, the concentration for half-maximal inhibition (IC50) entry in [1] (mcf7) is recorded as “Not Active”.
As for `COc1ccc2c(c1)CC[C@@H]1[C@@H]2CC[C@@]2(C)[C@H]1CC[C@]2(C/C(=N\S(=O)(=O)c1ccc(C)cc1)OCCC(C)C)OC`, the half-maximal inhibitory concentration (IC50) in data set [1] (setting [11]) worked out at 21.7 µM.
On to `CCO/C(CC1=CC[C@H]2[C@@H]3CCc4cc(OC(C)=O)ccc4[C@H]3CC[C@]12C)=N/S(=O)(=O)c1ccc(C)cc1`, for which the IC50 in [1] (setting [11]) worked out at 5.6 µM.
For `CCO/C(C[C@]1(O)CC[C@H]2[C@@H]3CCC4=CC(=O)CC[C@]4(C)[C@H]3CC[C@@]21C)=N/S(=O)(=O)c1ccc(C)cc1`, the half-inhibitory concentration (IC50) in data set [1] (setting [11]) turned out to be 9.9 µM.
Consider `CCO/C(C[C@]1(OC)CC[C@H]2[C@@H]3CCc4cc(OC)ccc4[C@H]3CC[C@@]21C)=N/S(=O)(=O)c1ccc(C)cc1`, for which the 50% inhibitory concentration (IC50) in data set [1] (setting [11]) was 7 µM.
Same read-out and setting: with `COc1ccc2c(c1)CC[C@@H]1[C@@H]2CC[C@@]2(C)[C@H]1CC[C@]2(C/C(=N\S(=O)(=O)c1ccc(C)cc1)OCC(Cl)(Cl)Cl)OC` the figure was 22.2 µM.
Same read-out and setting: as for `COc1ccc2c(c1)CC[C@@H]1[C@@H]2CC[C@@]2(C)[C@H]1CC[C@]2(C/C(=N\S(=O)(=O)c1ccc(C)cc1)OCC(C)C)OC`, the figure is 8.5 µM.
Same read-out and setting: with `COc1ccc2c(c1)CC[C@@H]1[C@@H]2CC[C@@]2(C)[C@H]1CC[C@]2(C/C(=N\S(=O)(=O)c1ccc(C)cc1)OC1CCCCC1)OC` the figure was 20 µM.
`CCCO/C(C[C@]1(O)CC[C@H]2[C@@H]3CCC4=CC(=O)CC[C@]4(C)[C@H]3CC[C@@]21C)=N/S(=O)(=O)c1ccc(C)cc1`: in data set [1] (setting [11]), the half-inhibitory concentration (IC50) was found to be 22.4 µM.
On the same count and under the same terms, with `CCO/C(C[C@]1(O)CC[C@H]2[C@@H]3CCc4cc(OC(C)=O)ccc4[C@H]3CC[C@@]21C)=N/S(=O)(=O)c1ccc(C)cc1` the figure was 12.2 µM.
In the case of `CCO/C(C[C@]1(O)CC[C@H]2[C@@H]3CCc4cc(OS(=O)(=O)c5ccc(C)cc5)ccc4[C@H]3CC[C@@]21C)=N/S(=O)(=O)c1ccc(C)cc1`, the IC50 entry in [1] (mcf7) is reported as “Not Active”.
Take `CCO/C(C[C@]1(O)CC[C@H]2[C@@H]3CCc4cc(OCc5ccccc5)ccc4[C@H]3CC[C@@]21C)=N/S(=O)(=O)c1ccc(C)cc1`: the IC50 result in data set [1] (mcf7) was “Not Active”.
In the case of `COc1ccc2c(c1)CC[C@@H]1[C@@H]2CC[C@@]2(C)[C@H]1CC[C@@]2(O)CC(=O)NS(=O)(=O)c1ccc(C)cc1`, in data set [1] (mcf7), the IC50 entry is listed as “Not Active”.
Take `CCO/C(C[C@]1(O)CC[C@H]2[C@@H]3CCc4cc(O)ccc4[C@H]3CC[C@@]21C)=N/S(=O)(=O)c1ccc(C)cc1`: the IC50 in [1] (setting [11]) amounted to 15.3 µM.
With `CCCCO/C(C[C@]1(OC)CC[C@H]2[C@@H]3CCc4cc(OC)ccc4[C@H]3CC[C@@]21C)=N/S(=O)(=O)c1ccc(C)cc1`, the concentration for half-maximal inhibition (IC50) in data set [1] (setting [11]) was 10.5 µM.
As for `CCCCCCO/C(C[C@]1(OC)CC[C@H]2[C@@H]3CCc4cc(OC)ccc4[C@H]3CC[C@@]21C)=N/S(=O)(=O)c1ccc(C)cc1`, the half-inhibitory concentration (IC50) result in [1] (mcf7) is recorded as “Not Active”.
Take `CCCCCCCCCCCCO/C(C[C@]1(OC)CC[C@H]2[C@@H]3CCc4cc(OC)ccc4[C@H]3CC[C@@]21C)=N/S(=O)(=O)c1ccc(C)cc1`: the half-maximal inhibitory concentration (IC50) result in data set [1] (mcf7) is given as “Not Active”.
Take `COc1ccc2c(c1)CC[C@@H]1[C@@H]2CC[C@@]2(C)[C@H]1CC[C@]2(C/C(=N\S(=O)(=O)c1ccc(C)cc1)OCCCCl)OC`: the IC50 in data set [1] (setting [11]) is 11.4 µM.
Same read-out and setting: with `CCCO/C(C[C@]1(OC)CC[C@H]2[C@@H]3CCc4cc(OC)ccc4[C@H]3CC[C@@]21C)=N/S(=O)(=O)c1ccc(C)cc1` the figure was 4.5 µM.
